Where “and” joins values, the source holds several entries; their conditions need not be identical. Equal values may be shown once. Read-outs that look alike come from different tables or passages of the source.
Tested on: AsPC-1 cells
Assay: Cell proliferation assay, chemodrug + ATR inhibitor (Incucyte confluence, 72 h);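 also: underlying read-out for every value is AsPC-1 confluence after 72 h incubation at 37 °C and 5% CO2, divided by that well's starting confluence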
Details: for EC50: Homo sapiens; for Ratio: Response / Response vehicle (mean)
[1] = AsPC-1, Experiment GEM (no ATRi), single replicates R1-R3, listed as 5-FU
[2] = AsPC-1, Experiment GEM+ATRi_dose1, single replicates R1-R3, listed as 5-FU
[3] = AsPC-1, Experiment GEM+ATRi_dose2, single replicates R1-R3, listed as 5-FU
[4] = AsPC-1, Experiment GEM+ATRi_dose3, single replicates R1-R3, listed as 5-FU
[5] = Drug 0 nM + ATRi 3 nM (ATRi alone, GEM+ATRi_dose1 series), replicates R1-R3, listed as 5-FU
[6] = Drug 0 nM + ATRi 10 nM (ATRi alone, GEM+ATRi_dose2 series), replicates R1-R3, listed as 5-FU
[7] = Drug 0 nM + ATRi 30 nM (ATRi alone, GEM+ATRi_dose3 series), replicates R1-R3, listed as 5-FU
[8] = Drug 1 nM + ATRi 3 nM (GEM+ATRi_dose1), replicates R1-R3, listed as 5-FU
[9] = Drug 1 nM + ATRi 10 nM (GEM+ATRi_dose2), replicates R1-R3, listed as 5-FU
[10] = Drug 1 nM + ATRi 30 nM (GEM+ATRi_dose3), replicates R1-R3, listed as 5-FU
[11] = Drug 3 nM + ATRi 3 nM (GEM+ATRi_dose1), replicates R1-R3, listed as 5-FU
[12] = Drug 3 nM + ATRi 30 nM (GEM+ATRi_dose3), replicates R1-R3, listed as 5-FU
[13] = Drug 3 nM alone, ATRi 0 nM (experiment 'GEM'), replicates R1-R3, listed as 5-FU
[14] = Drug 10 nM + ATRi 3 nM (GEM+ATRi_dose1), replicates R1-R3, listed as 5-FU
[15] = Drug 10 nM + ATRi 10 nM (GEM+ATRi_dose2), replicates R1-R3, listed as 5-FU
[16] = Drug 10 nM + ATRi 30 nM (GEM+ATRi_dose3), replicates R1-R3, listed as 5-FU
[17] = Drug 10 nM alone, ATRi 0 nM (experiment 'GEM'), replicates R1-R3, listed as 5-FU
[18] = Drug 30 nM + ATRi 3 nM (GEM+ATRi_dose1), replicates R1-R3, listed as 5-FU
[19] = Drug 30 nM + ATRi 10 nM (GEM+ATRi_dose2), replicates R1-R3, listed as 5-FU
[20] = Drug 30 nM + ATRi 30 nM (GEM+ATRi_dose3), replicates R1-R3, listed as 5-FU
[21] = Drug 100 nM + ATRi 3 nM (GEM+ATRi_dose1), replicates R1-R3
[22] = Drug 100 nM + ATRi 10 nM (GEM+ATRi_dose2), replicates R1-R3, listed as 5-FU
[23] = Drug 100 nM + ATRi 30 nM (GEM+ATRi_dose3), replicates R1-R3, listed as 5-FU
[24] = Drug 100 nM alone, ATRi 0 nM (experiment 'GEM'), replicates R1-R3, listed as 5-FU
[25] = Drug 300 nM + ATRi 3 nM (GEM+ATRi_dose1), replicates R1-R3
[26] = Drug 300 nM + ATRi 10 nM (GEM+ATRi_dose2), replicates R1-R3, listed as 5-FU
[27] = Drug 300 nM + ATRi 30 nM (GEM+ATRi_dose3), replicates R1-R3, listed as 5-FU
[28] = Drug 300 nM alone, ATRi 0 nM (experiment 'GEM'), replicates R1-R3, listed as 5-FU
[29] = Drug 1000 nM + ATRi 3 nM (GEM+ATRi_dose1), replicates R1-R3
[30] = Drug 1000 nM + ATRi 30 nM (GEM+ATRi_dose3), replicates R1-R3, listed as 5-FU
[31] = Drug 1000 nM alone, ATRi 0 nM (experiment 'GEM'), replicates R1-R3, listed as 5-FU
[32] = Drug 3000 nM + ATRi 3 nM (GEM+ATRi_dose1), replicates R1-R3
[33] = Drug 3000 nM + ATRi 10 nM (GEM+ATRi_dose2), replicates R1-R3, listed as 5-FU
[34] = Drug 3000 nM + ATRi 30 nM (GEM+ATRi_dose3), replicates R1-R3, listed as 5-FU
[35] = Drug 3000 nM alone, ATRi 0 nM (experiment 'GEM'), replicates R1-R3, listed as 5-FU
[36] = drug 100 nM + ATRi 3 nM, listed as 5-FU
[37] = drug 300 nM + ATRi 3 nM, listed as 5-FU
[38] = drug 1000 nM + ATRi 3 nM, listed as 5-FU
[39] = drug 3000 nM + ATRi 3 nM, listed as 5-FU

Protocol: Cells were seeded at 5000 cells/well into 96-well flat bottom plates (Eppendorf) and allowed to attach overnight. […] Cells were incubated for 72 h at 37 °C and 5% CO2. Cell confluence readouts at 72 h were either normalized to their initial confluence using the Incucyte software (AsPC-1) or used without prior normalization (all others). […] Each experiment was performed in triplicates, the data was plotted as mean ± standard deviation (s.d.).

Question: What does the source list for `O=c1[nH]cc(F)c(=O)[nH]1` [5-fluorouracil]?
Answer: Curve bottom [1]: 1.02 and 1.01 and 1.04; Curve slope [1]: 1.53 and 1.20 and 1.02; Curve top [1]: 0.52 and 0.45 and 0.53; Curve bottom [2]: 1.03 and 1.04; Curve slope [2]: 1.17 and 1.72 and 2.53; Curve top [2]: 0.34 and 0.38 and 0.50; Curve bottom (AsPC-1, Experiment GEM+ATRi_dose2, single replicates R1-R3): 1.02; Curve slope [3]: 2.12 and 2.47 and 2.30; Curve top [3]: 0.44 and 0.42 and 0.41; Curve bottom [4]: 0.92 and 0.93 and 0.96; Curve slope [4]: 7.78 and 7.99 and 4.74; Curve top [4]: 0.42 and 0.41; Response [5]: 93.23 and 93.25; Response [6]: 93.23 and 93.25; Response [7]: 86.00 and 86.93; Response [8]: 93.84 and 90.46; Response [9]: 92.14 and 89.28; Response [10]: 85.34 and 86.33; Response (Drug 1 nM alone, ATRi 0 nM (experiment 'GEM'), replicates R1-R3, listed as 5-FU): 94.45; Response [11]: 93.43 and 94.40; Response (Drug 3 nM + ATRi 10 nM (GEM+ATRi_dose2), replicates R1-R3, listed as 5-FU): 92.25 and 90.36; Response [12]: 84.22 and 84.05; Response [13]: 90.32; Response [14]: 92.50 and 91.39; Response [15]: 91.53 and 89.96; Response [16]: 83.67 and 82.94; Response [17]: 89.98 and 90.52; Response [18]: 93.40 and 92.15; Response [19]: 91.74 and 91.80; Response [20]: 86.01 and 86.29; Response (Drug 30 nM alone, ATRi 0 nM (experiment 'GEM'), replicates R1-R3, listed as 5-FU): 91.55 and 89.05; Response [21]: 92.03; Response [22]: 90.88 and 90.27; Response [23]: 85.31 and 85.49; Response [24]: 92.05 and 91.30; Response [25]: 79.74; Response [26]: 62.48 and 67.47; Response [27]: 51.19 and 52.50; Response [28]: 82.78 and 83.05; Response [29]: 50.06; Response (Drug 1000 nM + ATRi 10 nM (GEM+ATRi_dose2), replicates R1-R3, listed as 5-FU): 44.01 and 42.89; Response [30]: 38.74 and 41.39; Response [31]: 71.08 and 72.31; Response [32]: 44.54; Response [33]: 35.64 and 36.17; Response [34]: 35.72 and 32.91; Response [35]: 54.65 and 60.00; EC50 (ASPC1, 72 h, AsPC-1, Experiment GEM (no ATRi), single replicates R1-R3): 1020 nM; EC50 (ASPC1, 72 h, read-out: EC50 mean [nM], AsPC-1, Experiment GEM (no ATRi), mean of R1-R3, repeated in each replicate line): 1190 nM; EC50 (ASPC1, 72 h, read-out: pEC50, AsPC-1 (converted), Experiment GEM (no ATRi), single replicates R1-R3): 1020 nM; EC50 (ASPC1, read-out: EC50 mean [nM], AsPC-1, Experiment GEM (no ATRi), mean of R1-R3, repeated in each replicate line): 1190 nM; EC50 (ASPC1, read-out: EC50 mean [nM], AsPC-1, Experiment GEM+ATRi_dose1, mean of R1-R3, repeated in each replicate line): 619 nM; EC50 (ASPC1, read-out: EC50 mean [nM], AsPC-1, Experiment GEM+ATRi_dose2, mean of R1-R3, repeated in each replicate line): 326 nM; EC50 (ASPC1, read-out: EC50 mean [nM], AsPC-1, Experiment GEM+ATRi_dose3, mean of R1-R3, repeated in each replicate line): 266 nM; Ratio [5]: 1.02 and 1.04; Ratio [6]: 1.02 and 1.04; Ratio [7]: 0.94 and 0.97; Ratio [8]: 1.03 and 1.01; Ratio [9]: 1.01 and 1.00; Ratio [10]: 0.94 and 0.97; Ratio (Drug 1 nM alone, ATRi 0 nM (experiment 'GEM'), replicates R1-R3): 1.04; Ratio [11]: 1.03 and 1.06; Ratio (Drug 3 nM + ATRi 10 nM (GEM+ATRi_dose2), replicates R1-R3): 1.01; Ratio [12]: 0.92 and 0.94; Ratio [13]: 0.99 and 1.05; Ratio [14]: 1.01 and 1.02; Ratio [15]: 1.00 and 1.01; Ratio [16]: 0.92 and 0.93; Ratio [17]: 0.99 and 1.01; Ratio [18]: 1.02 and 1.03; Ratio [19]: 1.01 and 1.03; Ratio [20]: 0.94 and 0.97; Ratio (Drug 30 nM alone, ATRi 0 nM (experiment 'GEM'), replicates R1-R3): 1.00; Ratio [21]: 1.03; Ratio [22]: 1.00 and 1.01; Ratio [23]: 0.94 and 0.96; Ratio [24]: 1.01 and 1.02; Ratio [25]: 0.89; Ratio [26]: 0.69 and 0.76; Ratio [27]: 0.56 and 0.59; Ratio [28]: 0.91 and 0.93; Ratio [29]: 0.56; Ratio (Drug 1000 nM + ATRi 10 nM (GEM+ATRi_dose2), replicates R1-R3): 0.48; Ratio [30]: 0.43 and 0.46; Ratio [31]: 0.78 and 0.81; Ratio [32]: 0.50; Ratio [33]: 0.39 and 0.41; Ratio [34]: 0.39 and 0.37; Ratio [35]: 0.60 and 0.67; Ratio (drug 1 nM + ATRi 3 nM): 1.05; Ratio (drug 1 nM + ATRi 10 nM): 1.03; Ratio (drug 1 nM + ATRi 30 nM): 0.93; Ratio (drug 1 nM alone (ATRi 0 nM)): 1.02; Ratio (drug 3 nM + ATRi 3 nM): 1.01; Ratio (drug 3 nM + ATRi 10 nM): 0.98; Ratio (drug 3 nM + ATRi 30 nM): 0.92; Ratio (drug 3 nM alone (ATRi 0 nM)): 1.00; Ratio (drug 10 nM + ATRi 3 nM): 1.01; Ratio (drug 10 nM + ATRi 10 nM): 1.01; Ratio (drug 10 nM + ATRi 30 nM): 0.91; Ratio (drug 10 nM alone (ATRi 0 nM)): 1.02; Ratio (drug 30 nM + ATRi 3 nM): 1.02; Ratio (drug 30 nM + ATRi 10 nM): 1.00; Ratio (drug 30 nM + ATRi 30 nM): 0.94; Ratio (drug 30 nM alone (ATRi 0 nM)): 1.02; Ratio [36]: 1.02 and 1.04; Ratio (drug 100 nM + ATRi 10 nM): 1.01; Ratio (drug 100 nM + ATRi 30 nM): 0.92; Ratio (drug 100 nM alone (ATRi 0 nM)): 1.03; Ratio [37]: 0.84 and 0.85; Ratio (drug 300 nM + ATRi 10 nM): 0.76; Ratio (drug 300 nM + ATRi 30 nM): 0.58; Ratio (drug 300 nM alone (ATRi 0 nM)): 0.95; Ratio [38]: 0.66 and 0.57; Ratio (drug 1000 nM + ATRi 10 nM): 0.52; Ratio (drug 1000 nM + ATRi 30 nM): 0.43; Ratio (drug 1000 nM alone (ATRi 0 nM)): 0.78; Ratio [39]: 0.46 and 0.41; Ratio (drug 3000 nM + ATRi 10 nM): 0.43; Ratio (drug 3000 nM + ATRi 30 nM): 0.42; Ratio (drug 3000 nM alone (ATRi 0 nM)): 0.60; sensitization of AsPC-1 cells to the chemodrug by Elimusertib (chemodrug + three sub-EC50 doses of Elimusertib): sensitized; Response (drug 1 nM + ATRi 3 nM): 97.06; Response (drug 1 nM + ATRi 10 nM): 94.90; Response (drug 1 nM + ATRi 30 nM): 85.74; Response (drug 1 nM alone (ATRi 0 nM)): 94.29; Response (drug 3 nM + ATRi 3 nM): 93.28; Response (drug 3 nM + ATRi 10 nM): 90.39; Response (drug 3 nM + ATRi 30 nM): 84.88; Response (drug 3 nM alone (ATRi 0 nM)): 92.53; Response (drug 10 nM + ATRi 3 nM): 93.05; Response (drug 10 nM + ATRi 10 nM): 92.81; Response (drug 10 nM + ATRi 30 nM): 83.72; Response (drug 10 nM alone (ATRi 0 nM)): 93.59; Response (drug 30 nM + ATRi 3 nM): 93.52; Response (drug 30 nM + ATRi 10 nM): 91.78; Response (drug 30 nM + ATRi 30 nM): 86.53; Response (drug 30 nM alone (ATRi 0 nM)): 94.07; Response [36]: 94.22 and 94.47; Response (drug 100 nM + ATRi 10 nM): 93.45; Response (drug 100 nM + ATRi 30 nM): 85.12; Response (drug 100 nM alone (ATRi 0 nM)): 94.67; Response [37]: 77.35 and 77.27; Response (drug 300 nM + ATRi 10 nM): 69.87; Response (drug 300 nM + ATRi 30 nM): 53.83; Response (drug 300 nM alone (ATRi 0 nM)): 87.11; Response [38]: 61.14 and 51.57; Response (drug 1000 nM + ATRi 10 nM): 47.87; Response (drug 1000 nM + ATRi 30 nM): 39.31; Response (drug 1000 nM alone (ATRi 0 nM)): 71.77; Response [39]: 42.27 and 37.14; Response (drug 3000 nM + ATRi 10 nM): 39.36; Response (drug 3000 nM + ATRi 30 nM): 38.38; Response (drug 3000 nM alone (ATRi 0 nM)): 55.50
